Literature values, collected in patent US20200353086A1, “CONTROLLED-RELEASE FORMULATIONS” (CAMURUS AB, priority 2014, published 2020).
*1 amine or outer side, *2 acyl side, *3 side chain or, on linkers, in order; H or OH if unused. Where a SMILES comes first, the peptide text is derived from it. Side-chain parts run from the residue outwards. [ ]: non-standard residue; d: D form. The star is where a group is joined. Ethylenediamine = C(CN[*:2])N[*:1]; Hyp = O=C(O)[C@@H]1C[C@@H](O)CN1; Phg = N[C@H](C(=O)O)c1ccccc1; CO = O=C([*:1])[*:2]; Bn = c1ccc(C*)cc1

Experiments:
[1] = tested on: somatostatin receptors (SSTRs)
[2] = human, single subcutaneous dose

Molecule	selectivity between somatostatin receptor subtypes [1]	terminal half-life (in vivo)	affinity for somatostatin receptor subtypes [1]	initial half-life following the peak [2]	biological half-life (natural SST-14)
C[C@@H](O)[C@@H]1NC(=O)[C@H](CCCCN)NC(=O)[C@@H](Cc2c[nH]c3ccccc23)NC(=O)[C@H](Cc2ccccc2)NC(=O)[C@@H](NC(=O)[C@H](N)Cc2ccccc2)CSSC[C@@H](C(=O)N[C@H](CO)[C@@H](C)O)NC1=O [Octreotide, D-Phe-Cys-Phe-D-Trp-Lys-Thr-Cys-Thr-ol (2-7 disulphide bridge)]	high selectivity for SSTR2 and SSTRS	around 1.7 hours	–	–	–
NCCCC[C@@H]1NC(=O)[C@@H](Cc2c[nH]c3ccccc23)NC(=O)[C@H](c2ccccc2)NC(=O)[C@@H]2C[C@@H](OC(=O)NCCN)CN2C(=O)[C@H](Cc2ccccc2)NC(=O)[C@H](Cc2ccc(OCc3ccccc3)cc2)NC1=O [Pasireotide] (cyclo([Hyp]([CO-Ethylenediamine])[Phg][dW]KY(Bn)F))	–	–	high affinity for somatostatin receptor subtypes sstr1,2,3 and sstr5	2 to 3 h	–
Ala-Gly-Cys-Lys-Asn-Phe-Phe-Trp-Lys-Thr-Phe-Thr-Ser-Cys [SST-14]	–	–	equally high affinity	–	1-3 minutes
